Assay results: patent US12370265B2, “Hydrogel for in-vivo release of medication” (UMC Utrecht Holding B.V., priority 2019, dated 2025)

What was measured:
[1] = Directional release from hydrogel coated with PCL on one side, in 3% alginate gel; format: physicochemical
Protocol: Release of methylene blue from the hydrogel was simulated in a 3% alginate gel, cross-linked with calcium chloride to obtain a tissue-like consistency. Only the top part of the hydrogel was coated with PCL. The samples were inspected at 0, 1, 2, and 3 hours. Hydrogels were positioned vertically to eliminate any effect of gravity on the direction of release. […] The same experiment was performed with bupivacaine.

[2] = local anaesthetic; cited from earlier work

cumulative release ([1]; from the PCL-covered direction, after 8 hours): about 2 mg | time to reach cumulative release of about 2 mg ([1]; non-PCL covered direction): ≤ 1 h
Structure (SMILES): CCCCN1CCCCC1C(=O)Nc1c(C)cccc1C (stereo not drawn) [bupivacaine]
duration of its effect [2]: approx. 8 hours
